Test results taken from patent US6133311A, “Method for preventing or treating elevated blood lipid level-related diseases by administering natural phenolic compounds” (priority 1998, dated 2000).

What was measured:
[1] = chemical analysis of blood of rabbits fed a high-cholesterol diet; format: in vivo, New Zealand White rabbits; conditions: for TG (triglyceride): Control 56 ± 38; for TC (total cholesterol): Control 1143 ± 260
Description: Effect of Tannin, Gallic acid or Ellagic acid in an Animal
(Step 1) Administration of tannin, gallic acid or ellagic acid to rabbits
(§1) 30 three-month-old male New Zealand White rabbits (Yeonam Horticulture and Animal Husbandry College, Korea), each weighing about 2.5 to 2.6 kg, were raised under a condition of temperature 20+2° C., relative humidity 55±5%, and photoperiod 12L/12D. The rabbits were divided into 5 groups and 5 groups of rabbits were fed with 5 different diets, i.e., RC4 diet (Oriental Yeast Co., Japan) containing 1% cholesterol (Control group, 1); 1% cholesterol plus 1 mg/kg Lovastatin® (Merck, U.S.A.) (Lovastatin® group, 2); 1% cholesterol plus 0.1% tannin (3); 1% cholesterol plus 0.1% gallic acid (4); and 1% cholesterol plus 0.1% ellagic acid (5), respectively. RC4 diet comprises 7.6% moisture, 22.8% crude protein, 2.8% crude fat, 8.8% crude ash, 14.4% crude cellulose and 43.6% soluble nitrogen-free substances. Tannin, gallic acid and ellagic acid were purchased from Sigma Chemical Co. (St. Louis, Mo.).
(§2) The rabbits were fed for 6 weeks while being allowed free access to the diets and water.
(Step 2) Chemical Analysis of Blood
After six weeks, the rabbits were anesthetized with an intramuscular injection of ketamine (50 mg/kg) in the femoral region and sacrificed. A blood sample was taken from the heart of each rabbit, allowed to stand for 2 hours and centrifuged at 3,000 rpm for 15 minutes and the supernatant serum was separated and stored in a freezer before use.
The chemical analysis of blood was carried out by employing a blood chemical analyzer (CIBA Corning 550 Express, USA) to determine the changes in GOT, GPT, γGTP, total cholesterol, HDL-cholesterol and triglyceride levels.

[2] = tested on: main artery (arterial endothelium); assay: analysis for fatty streak in the main artery of rabbits; format: in vivo, New Zealand White rabbits; conditions: for Fatty streak (proportion of stained region to total arterial area): 1% cholesterol diet plus 0.1% compound (Lovastatin 1 mg/kg), Control 35 ± 14; for layer of macrophage-lipid complex on the arterial endothelium: FIGS. 1B and 1C, control: thick layer
Description: as §1, §2
(Step 3) Analysis for fatty streak in the main artery
The chest of each of the rabbits sacrificed in Step 2 was incised. The downward portion of the main artery from the site 1 cm above the aortic valve was cut out in a length of about 5 cm and the fat surrounding the main artery was removed. The main artery was incised in the middle along the longitudinal axis and pinned to a dish. The moist artery was photographed and, then, the staining of fatty streaks was carried out in accordance with the method of Esper, E., et al. (J. Lab. Clin. Med., 121, 103-110 (1993)) as follows.
A part of the incised main artery was washed three times with anhydrous propylene glycol for 2 min. and stained for 30 min. with a saturated solution of Oil Red O (ORO, Sigma Co.) dissolved in propylene glycol. Thereafter, the artery was washed twice with 85% propylene glycol for 3 min. to remove remaining staining solution and, then washed with physiological saline. The artery was photographed and the photograph was traced. The area of stained region (fatty streak region) was determined with an image analyzer (LEICA, Q-600, Germany) and its proportion (%) to the total arterial area was calculated.
FIGS. 1A, 1B and 1C show the arteries of the rabbits administered with 1% cholesterol (Control group); 1% cholesterol plus 1 mg/kg Lovastatin® (Lovastatin® group); 1% cholesterol plus 0.1% ellagic acid, respectively.

[3] = tested on: liver cells around the central vein; assay: fatty liver: proportion of abnormal fat-containing cells in the liver of rabbits; format: in vivo, New Zealand White rabbits; conditions: for A: Proportion of abnormal fat-containing liver cells (grade): 1% cholesterol diet plus 0.1% compound (Lovastatin 1 mg/kg), mean of grades 1+ to 4+, Control 3.2 ± 0.3; for microscopic features of the liver: FIGS. 2B and 2C, around the central vein
Description: as §1, §2
(Step 5) Prevention of Hepatic Diseases

[4] = tested on: LDL receptor in the liver; conditions: Farmer, J. A., et al. (1995), cited from earlier work; for plasma LDL cholesterol level: by enhancing the activity of LDL receptor in the liver
[5] = rabbits, 1% cholesterol diet plus 0.1% compound (Lovastatin 1 mg/kg), 6 weeks

Row | Compound | effect on the liver function (adverse) ([1]; rabbit, in vivo) | TG (triglyceride) [1, 5] | TC (total cholesterol) [1, 5] | lipid metabolism and liver function ([1]; rabbits, 6 weeks) | Fatty streak (proportion of stained region to total arterial area) ([2]; 6 weeks) | plaque formation in the endothelium of the main artery ([2]; 6 weeks) | layer of macrophage-lipid complex on the arterial endothelium ([2]; 6 weeks) | deposition of macrophages on the arterial endothelium ([2]; blood cholesterol level high) | A: Proportion of abnormal fat-containing liver cells (grade) ([3]; 6 weeks) | inhibition of the formation of fatty liver ([3]; 1% cholesterol diet, 6 weeks) | microscopic features of the liver [3] | γGTP ([1]; rabbits, 1% cholesterol diet plus 0.1% compound (Lovastatin 1 mg/kg), 6 weeks, Control 4.2 ± 0.9) | GPT ([1]; rabbits, 1% cholesterol diet plus 0.1% compound (Lovastatin 1 mg/kg), 6 weeks, Control 65 ± 9) | GOT ([1]; rabbits, 1% cholesterol diet plus 0.1% compound (Lovastatin 1 mg/kg), 6 weeks, Control 77 ± 8) | side effects [4] | plasma LDL cholesterol level [4]
1 | O=c1oc2c(O)c(O)cc3c(=O)oc4c(O)c(O)cc1c4c23 [Ellagic acid, ellagic acid] | do not adversely affect on the liver function | 25 ± 10 mg/dL | 1000 ± 105 mg/dL | can improve | 9 ± 2% | inhibit | no or very thin layers of macrophage-lipid complex | strongly inhibit | 2.7 | significantly inhibit the formation of fatty liver | almost all liver cells are of a normal shape | – | – | – | – | –
2 | CC[C@H](C)C(=O)O[C@H]1C[C@@H](C)C=C2C=C[C@H](C)[C@H](CC[C@@H]3C[C@@H](O)CC(=O)O3)[C@H]21 [Lovastatin®, reference compound] | – | 66 ± 17 mg/dL | 1210 ± 263 mg/dL | – | 5% | – | no or very thin layers of macrophage-lipid complex | – | 3.4 ± 0.5 | – | many cells containing excessive fat were observed around the central vein | 12.4 ± 0.8 IU/l | 73 ± 9 IU/l | 125 ± 19 IU/l | increase in creatine kinase in the liver and rhabdomyolysis | may reduce the plasma LDL cholesterol level
3 | CCC(C)(C)C(=O)O[C@H]1C[C@@H](C)C=C2C=C[C@H](C)[C@H](CC[C@@H]3C[C@@H](O)CC(=O)O3)[C@H]21 [Simvastatin®] | – | – | – | – | – | – | – | – | – | – | – | – | – | – | – | may reduce the plasma LDL cholesterol level
